Reference: US9662362B2, “Composition and methods for clotting blood” (BYZMED LLC, priority 2009, dated 2017)

Test system: nose bleeding
Assay: Nose bleeding after abrasion of the nasal passage, checked by blowing nose and dabbing with tissue
Assay type: in vivo
Details: visual check
Source text: Nose bleeding was caused by creating an abrasion to the nasal passage of a subject by use of a cotton swab irritating the nasal passage. The subject then blew their nose vigorously. The first test was to create an abrasion and pinching the nostril with no application of any product. Bleeding was checked at multiple time points, including the after 30 seconds, 60 seconds and 90 seconds by blowing ones nose 3 times and dabbing the area with a tissue to see if there was continued perfuse bleeding. […] After 90 seconds, the first test was then concluded. Next, the effect of glycerin on nose bleeding was determined. Glycerin was applied to the nasal passage after bleeding had started. Bleeding was checked at multiple time points, including the after 30 seconds, 60 seconds and 90 seconds by blowing ones nose 3 times and dabbing the area with a tissue to see if there was continued perfuse bleeding. […] After 90 seconds, the second test was then concluded. The effect of the disclosed clotting agent that included the active ingredients of […] betonica, achillea millefolium, marrubium vulgare, and urtica dioica application on nose bleeding was then determined. Bleeding was checked at multiple time points, including after 30 seconds, 60 seconds and 90 seconds by the subject blowing their nose 3 times and dabbing the area with a tissue to see if there was continued perfuse bleeding. […] After 90 seconds, there was no bleeding in the nasal passage. This part of the test was then concluded.

Measured: bleeding in the nasal passage

OCC(O)CO [Glycerin]
bleeding continued: after 30 seconds, applied to nasal passage after bleeding had started | after 60 seconds (1 minute) | after 90 seconds
